We go through six compounds from publication PMC5127577, “Biochemical Characterization of Glutamate Racemase—A New Candidate Drug Target against Burkholderia cenocepacia Infections” (PLoS ONE, 2016).

Where two headings read alike, the source gives them in different places.

The target in test [1] is GR from B. subtilis. The following applies: cited from earlier work.
The target of test [2] is T1, B. cenocepacia J2315 glutamate racemase (BcGR) (Burkholderia cenocepacia, UniProt B4EEM8).
T1 sequence (B4EEM8 1-285): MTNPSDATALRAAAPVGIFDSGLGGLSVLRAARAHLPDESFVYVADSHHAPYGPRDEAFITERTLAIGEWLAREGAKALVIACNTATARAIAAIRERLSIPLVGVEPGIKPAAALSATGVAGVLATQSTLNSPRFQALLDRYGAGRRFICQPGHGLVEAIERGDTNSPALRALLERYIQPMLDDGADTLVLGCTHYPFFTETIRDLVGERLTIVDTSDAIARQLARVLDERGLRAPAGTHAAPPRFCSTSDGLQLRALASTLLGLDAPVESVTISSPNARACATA
In words: BcGR enzymatic activity inhibition, spectrophotometric coupled assay (L-glutamate dehydrogenase/diaphorase). The following applies: for BcGR inhibition in screening: compound 100 μM; for inhibitory effect in the presence of EDTA: excess of EDTA; for mode of inhibition: steady state kinetics, D-Glu 5–50 mM, compound 0–100 μM.

The target in test [3] is GR from B. anthracis. The following applies: cited from earlier work.
The subject of test [4] is B. cenocepacia J2315. The test is described as follows: Minimal Inhibitory Concentration, 2-fold microdilution, resazurin method. The following applies: planktonic cells, 8 to 1024 μg/ml tested, two days 37°C. The format is cell-based, Burkholderia cenocepacia J2315.

Regarding `O=S(=O)(O)c1nc2ccccc2[nH]1` [1-H-benzimidazole-2-sulfonic acid, reference compound], the Ki (usually the dissociation constant of the complex between target and ligand, obtained from inhibition or displacement) in test [1] is 9 µM. Also, the “BcGR inhibition in screening” value in test [2] (20 mM D-Glu) was “did not show any inhibition”.
In the case of `O=S(=O)(O)c1ccc(O)c(S(=O)(=O)O)c1` [4-hydroxybenzene-1,3-disulfonate, reference compound], in test [3], the Ki is 59 µM. In addition, the “BcGR inhibition in screening” value in test [2] (20 mM D-Glu) was “did not show any inhibition”.
Turning to `N[C@H](CC(Cc1ccccc1)C(=O)O)C(=O)O` (stereo partly drawn) [(2R)-2-amino-4-benzylpentanedioic, (2R)-2-amino-4-benzylpentanedioic acid, reference compound], the “BcGR inhibition in screening” value in test [2] (20 mM D-Glu) is reported as “did not show any inhibition”.
Take `O=C(O)c1cccc(C(=O)O)n1` [dipicolinic acid]: the Ki was 92 µM in test [3] (non-competitive inhibitor) and 2700 µM in test [1]. The IC50 (usually the concentration at which inhibition is half-maximal) in test [2] amounted to 150 ± 30 µM.
Consider “bis(2,4-bis(trichloromethyl)-1,3,5-triazapentadienato)-zinc(II) complex [(1)]”, for which, in test [4], the “MIC (concentration necessary to inhibit growth)” value is given as “at least 512 μg/ml”. For the same compound, in test [2] (20 mM D-Glu, 37°C, pH 8.0), it took 35.3 ± 4.9 µM to reach half-maximal inhibition (IC50). In test [2] (20 mM D-Glu), the “BcGR inhibition in screening” value was “almost completely inhibit”. In test [2], the “inhibitory effect in the presence of EDTA” value is reported as “could be observed also in the presence of EDTA” and the mode of inhibition result is on record as “non-competitive”.
The like results for “tris(2,4-bis(trichloromethyl)-1,3,5-triazapentadienate)-Mn(III) complex [(2)]” were, in that order, “at least 512 μg/ml”, 10 ± 0.8 µM, “almost completely inhibit”, “could be observed also in the presence of EDTA” and “non-competitive”.
